According to PMC6009902, “1-(Benzo[d]thiazol-2-yl)-3-phenylureas as dual inhibitors of casein kinase 1 and ABAD enzymes for treatment of neurodegenerative disorders” (Journal of Enzyme Inhibition and Medicinal Chemistry, 2018):
Where “and” joins values, the source holds several entries; their conditions need not be identical. Equal entries are not always repeated.

Columns and labels:
CK1δ = tested on: CK1δ; set-up: method as in PMID 20577972; details: standards; cited from earlier work
[1] = molecular target: T1, Human recombinant Casein Kinase 1 delta (CK1δ) (Homo sapiens, UniProt P48730); assay: CK-1δ Kinase-Glo assay; type: biochemical; details: for IC50: human recombinant enzyme, mean of two independent experiments, read-out: IC50 CK1δ (µM ± SD); for CK1δ inhibition (value in parentheses): screening at fixed concentration of 10 µM
T1 construct: purchased Millipore (Millipore Iberica S.A.U.)
T1 sequence (P48730 whole entry): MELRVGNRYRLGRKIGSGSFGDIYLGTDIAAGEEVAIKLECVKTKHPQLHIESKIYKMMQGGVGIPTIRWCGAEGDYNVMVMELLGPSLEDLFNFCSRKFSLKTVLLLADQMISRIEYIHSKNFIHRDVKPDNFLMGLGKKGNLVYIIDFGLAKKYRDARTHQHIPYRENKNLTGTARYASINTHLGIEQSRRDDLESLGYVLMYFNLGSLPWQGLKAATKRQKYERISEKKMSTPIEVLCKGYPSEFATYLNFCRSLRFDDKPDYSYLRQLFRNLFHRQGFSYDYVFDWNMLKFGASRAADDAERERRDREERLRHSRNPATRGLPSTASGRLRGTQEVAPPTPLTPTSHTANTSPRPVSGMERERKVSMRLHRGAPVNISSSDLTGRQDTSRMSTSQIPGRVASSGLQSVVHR
Protocol: (§1) The Kinase-Glo Kit was purchased from Promega (Promega Biotech Ibérica, SL) and was used to screen compounds for activity against CK-1δ and CK1ε. Human recombinant Casein Kinase 1 delta and epsilon was purchased from Millipore (Millipore Iberica S.A.U.). Casein solution from bovine milk, 5%, was purchased from Sigma-Aldrich (St. Louis, MO, USA). ATP and all other reagents were from Sigma-Aldrich (St. Louis, MO, USA). Kinase-Glo assays were performed in assay buffer using black 96-well plates. In a typical assay, 10 µL of test compound (dissolved in DMSO at 1 mM concentration and diluted in advance in assay buffer to the desired concentration) 10 µL (16 ng) of enzyme were added to each well followed by 20 µL of assay buffer containing 0.1% casein as substrate and 4 µM ATP. […] After 60 min incubation at 30 °C the enzymatic reaction was stopped with 40 µL of Kinase-Glo reagent. Glow-type luminescence was recorded after 10 min using a FLUOstar Optima (BMG Labtechnologies GmbH, Offenburg, Germany) multimode reader. The activity is proportional to the difference of the total and consumed ATP. The inhibitory activities were calculated on the basis of maximal activities measured in the absence of inhibitor. […] Each value is the mean of two independent experiments.
Compounds were screened against human recombinant enzyme CK1δ at a fixed concentration of 10 µM.

[2] = molecular target: T2, Human recombinant Casein Kinase 1 epsilon (CK1ε) (Homo sapiens, UniProt P49674); assay: CK-1ε Kinase-Glo assay; type: biochemical; details: for IC50: human recombinant enzyme, mean of two independent experiments, read-out: IC50 CK1ε (µM ± SD)
T2 construct: purchased Millipore (Millipore Iberica S.A.U.)
T2 sequence (P49674 whole entry): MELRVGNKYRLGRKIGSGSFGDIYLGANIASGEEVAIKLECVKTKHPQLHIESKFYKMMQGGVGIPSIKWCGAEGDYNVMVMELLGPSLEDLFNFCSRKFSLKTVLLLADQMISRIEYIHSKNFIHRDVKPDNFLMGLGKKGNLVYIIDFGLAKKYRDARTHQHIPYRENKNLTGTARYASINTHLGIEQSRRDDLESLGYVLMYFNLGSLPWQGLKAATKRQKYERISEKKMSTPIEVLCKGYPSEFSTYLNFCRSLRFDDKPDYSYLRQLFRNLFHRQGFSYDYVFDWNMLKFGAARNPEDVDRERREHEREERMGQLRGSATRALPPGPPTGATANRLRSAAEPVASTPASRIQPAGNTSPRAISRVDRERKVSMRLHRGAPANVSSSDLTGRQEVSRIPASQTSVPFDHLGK
Protocol: as §1, with “experiments. […]” for “experiments.”

PAMPA-BBB assay = details: for Pe (10^−6 cm s^−1): 2.5 h
Protocol: Prediction of the BBB penetration was evaluated using a parallel artificial membrane permeability assay (PAMPA) using the setup according to Di et al.[12]. Ten commercial drugs, phosphate buffer saline solution at pH 7.4 (PBS), Ethanol and dodecane were purchased from Sigma, Acros organics, Merck, Aldrich and Fluka. […] Filter PDVF membrane units (diameter 30 mm, pore size 0.45 µm) from Symta were used to filtered the samples. A 96-well plate UV reader (Thermo Scientific, Multiskan spectrum) was used for the UV measurements. […] About 100 µL of this compound stock solution was taken and […] of EtOH and 3500 µL of PBS pH = 7.4 buffer were added to reach 30% of EtOH concentration in the experiment. These solutions were filtered. The acceptor 96-well microplate was filled with 180 µL of PBS/EtOH (70/30). The donor 96-well plate was coated with 4 µL of porcine brain lipid in dodecane (20 mg mL^−1) and after 5 min, 180 µL of each compound solution was added. About 1–2 mg of every compound to be determined their ability to pass the brain barrier were dissolved in 1500 µL of EtOH and 3500 µL of PBS pH = 7.4 buffer, filtered and then added to the donor 96-well plate. Then the donor plate was carefully put on the acceptor plate to form a “sandwich”, which was left undisturbed for 2 h and 30 min at 25 °C. During this time the compounds diffused from the donor plate through the brain lipid membrane into the acceptor plate. After incubation, the donor plate was removed. UV plate reader determined the concentration of compounds and commercial drugs in the acceptor and the donor wells. Every sample was analysed at three to five wavelengths, in three wells and in two independent runs. […] 10 quality control compounds (previously mentioned) of known BBB permeability were included in each experiment to validate the analysis set.
Parallel Artificial Membrane Permeability Assay (PAMPA) is technique developed to predict passive permeability through biological membranes. […] An assay validation was made comparing the reported permeability values of commercial drugs with the experimental data obtained employing this methodology.

[3] = molecular target: amyloid-beta binding alcohol dehydrogenase (ABAD); set-up: method as in PMID 27287370; details: cited from earlier work
CK1ε = tested on: CK1ε; set-up: method as in PMID 20577972; details: standards; cited from earlier work

| Structure (SMILES) | IC50 [1] | IC50 [2] | SI (Selectivity index = IC50CK1ε/IC50CK1δ) [1] | also measured |
| --- | --- | --- | --- | --- |
| O=C(Nc1ccc(O)cc1)Nc1nc2ccc(F)cc2s1 [Compound K684] | 1.37 ± 0.23 µM |  |  |  |
| O=C(Nc1cccc(O)c1)Nc1nc2ccc(F)cc2s1 [Compound K686] | 0.86 ± 0.1 µM | 4.02 ± 0.16 µM | 4.7 |  |
| O=C(Nc1ccc(O)c(Cl)c1)Nc1nc2ccc(F)cc2s1 [Compound K690] | 0.84 ± 0.16 µM | 10.1 ± 0.74 µM | 12.0 | ability to cross the BBB (in words) (PAMPA-BBB assay): able to cross the BBB by passive permeation; Pe (10^−6 cm s^−1) (PAMPA-BBB assay; pig, pH 7.4): 13.2 ± 1.4 10^−6 cm s^−1; IC50 [3]: 1890 nM |
| O=C(Nc1ccc(O)c(C(=O)O)c1)Nc1nc2ccc(F)cc2s1 [Compound K692] | 0.91 ± 0.31 µM | 8.41 ± 0.71 µM | 9.2 |  |
| COc1ccc(NC(=O)Nc2nc3ccc(F)cc3s2)cc1 [Compound K694] | 7.38 ± 0.93 µM |  |  |  |
| COc1ccc(NC(=O)Nc2nc3ccc(F)cc3s2)cc1OC [Compound K696] | > 10 µM |  |  | CK1δ inhibition (value in parentheses) [1]: 23% |
| COc1ccc(NC(=O)Nc2nc3ccc(Cl)cc3s2)cc1OC [Compound K697] | 0.69 ± 0.19 µM | > 10 µM | >14.5 | CK1ε inhibition (value in parentheses) ([2]; printed beside IC50 >10 µM): 26% |
| COc1ccc(NC(=O)Nc2nc3ccc(F)cc3s2)cc1C(=O)O [Compound K698] | 3.37 ± 0.4 µM |  |  |  |
| O=C(Nc1ccc(Oc2ccccc2)cc1)Nc1nc2ccc(F)cc2s1 [Compound K700] | > 10 µM |  |  | CK1δ inhibition (value in parentheses) [1]: 36% |
| O=C(Nc1ccc(Oc2ccccc2)cc1)Nc1nc2ccc(Cl)cc2s1 [Compound K701] | > 10 µM |  |  | CK1δ inhibition (value in parentheses) [1]: 37% |
| O=C(Nc1ccc(C(=O)O)cc1)Nc1nc2ccc(F)cc2s1 [Compound K702] | 2.99 ± 0.36 µM |  |  |  |
| CCOC(=O)c1ccc(NC(=O)Nc2nc3ccc(F)cc3s2)cc1 [Compound K704] | > 10 µM |  |  | CK1δ inhibition (value in parentheses) [1]: 31% |
| CCOC(=O)c1ccc(NC(=O)Nc2nc3ccc(Cl)cc3s2)cc1 [Compound K705] | > 10 µM |  |  | CK1δ inhibition (value in parentheses) [1]: 45% |
| COC(=O)c1ccc(NC(=O)Nc2nc3ccc(F)cc3s2)cc1 [Compound K706] | > 10 µM |  |  | CK1δ inhibition (value in parentheses) [1]: 48% |
| CC(=O)Nc1ccc(NC(=O)Nc2nc3ccc(F)cc3s2)cc1 [Compound K708] | > 10 µM |  |  | CK1δ inhibition (value in parentheses) [1]: 39% |
| COC(=O)c1cc(NC(=O)Nc2nc3ccc(F)cc3s2)ccc1O [Compound K710] | > 10 µM |  |  | CK1δ inhibition (value in parentheses) [1]: 24% |
| COc1cc(OC)c(C=C2C(O)=Nc3ccccc32)c(OC)c1 [IC261] |  |  |  | IC50 (CK1ε): 1000 nM; IC50 (CK1δ): 1000 nM |
| CN(C)CCCN1c2ccccc2Sc2ccccc21 [promazine, reference compound] |  |  |  | Papp at 2.5 h (PAMPA-BBB assay; pig, pH 7.4): 8.1 ± 0.1 ×10⁻⁶ cm/s |

Further lines, with some results ahead:

| IC50 [1] | IC50 [2] | SI (Selectivity index = IC50CK1ε/IC50CK1δ) [1] | Structure (SMILES) | also measured |
| --- | --- | --- | --- | --- |
| 0.59 ± 0.06 µM | 9.01 ± 0.37 µM | 15.3 | O=C(Nc1ccc(O)cc1)Nc1nc2ccc(Cl)cc2s1 [Compound K685] |  |
|  | ~2 µM and 1.92 µM | 12.0 | O=C(Nc1cccc(O)c1)Nc1nc2ccc(Cl)cc2s1 [Compound K687] |  |
| 0.9 ± 0.14 µM | 7.33 ± 0.29 µM | 8.1 | O=C(Nc1nc2ccc(F)cc2s1)Nc1ccccc1O [Compound K688] |  |
| < 0.5 µM and 0.48 µM | 3.91 ± 0.4 µM | 8.1 | O=C(Nc1nc2ccc(Cl)cc2s1)Nc1ccccc1O [Compound K689] |  |
| 0.73 ± 0.21 µM | 3.01 ± 0.33 µM | 4.1 | O=C(Nc1ccc(O)c(Cl)c1)Nc1nc2ccc(Cl)cc2s1 [Compound K691] | ability to cross the BBB (in words) (PAMPA-BBB assay): able to cross the BBB by passive permeation; Pe (10^−6 cm s^−1) (PAMPA-BBB assay; pig, pH 7.4): 14 ± 2 10^−6 cm s^−1; IC50 [3]: 1670 nM |
| < 0.5 µM and 0.4 µM | ~2 µM and 2.29 µM | 5.7 | O=C(Nc1ccc(O)c(C(=O)O)c1)Nc1nc2ccc(Cl)cc2s1 [Compound K693] |  |
| 8.87 ± 0.73 µM |  |  | COc1ccc(NC(=O)Nc2nc3ccc(Cl)cc3s2)cc1 [Compound K695] |  |
| < 0.5 µM and 0.46 µM | 3.49 ± 0.09 µM | 7.6 | COc1ccc(NC(=O)Nc2nc3ccc(Cl)cc3s2)cc1C(=O)O [Compound K699] |  |
| < 0.5 µM and 0.3 µM | 3.69 ± 0.41 µM | 12.3 | O=C(Nc1ccc(C(=O)O)cc1)Nc1nc2ccc(Cl)cc2s1 [Compound K703] |  |
| 8.73 ± 0.71 µM |  |  | COC(=O)c1ccc(NC(=O)Nc2nc3ccc(Cl)cc3s2)cc1 [Compound K707] |  |
| 1.32 ± 0.15 µM |  |  | CC(=O)Nc1ccc(NC(=O)Nc2nc3ccc(Cl)cc3s2)cc1 [Compound K709] |  |
| 9.98 ± 0.96 µM |  |  | COC(=O)c1cc(NC(=O)Nc2nc3ccc(Cl)cc3s2)ccc1O [Compound K711] |  |
